According to ChEMBL document CHEMBL1201862, “PubChem BioAssay data set” (2004):
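Five compound concentrations were applied to cells in 96-well plates for 48 hours; endpoints were derived by simple linear interpolation of the resulting dose-response curve. GI50 marks 50% less growth.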 Calls of active or inactive are those of the source. No stated cut-off is given here; in the data, active = GI50 up to about 1.1 µM and inactive = higher.

How the values were obtained:
Test in all cases: inhibition of tumour cell growth, NCI panel, 48 h
SK-MEL-28 = tested on: SK-MEL-28
OVCAR-3 = tested on: OVCAR-3
SK-MEL-5 = tested on: SK-MEL-5
K562 = tested on: K562
UACC-62 = tested on: UACC-62
U-251 = tested on: U-251
MOLT-4 = tested on: MOLT-4
Malme-3M = tested on: Malme-3M
MDA-N = tested on: MDA-N
OVCAR-4 = tested on: OVCAR-4
HCC 2998 = tested on: HCC 2998
LOX IMVI = tested on: LOX IMVI
UO-31 = tested on: UO-31
SW-620 = tested on: SW-620
HOP-62 = tested on: HOP-62
KM12 = tested on: KM12
786-0 = tested on: 786-0
NCI-H226 = tested on: NCI-H226
SF-268 = tested on: SF-268
ACHN = tested on: ACHN

Row | SMILES | GI50 (SK-MEL-28) | GI50 (OVCAR-3) | GI50 (SK-MEL-5) | GI50 (K562) | GI50 (UACC-62) | GI50 (U-251) | GI50 (MOLT-4) | GI50 (Malme-3M) | GI50 (MDA-N) | GI50 (OVCAR-4) | GI50 (HCC 2998) | GI50 (LOX IMVI) | GI50 (UO-31) | GI50 (SW-620) | GI50 (HOP-62) | GI50 (KM12) | GI50 (786-0) | GI50 (NCI-H226) | GI50 (SF-268) | GI50 (ACHN)
1 | Cc1nc(N)nc(S)c1CCC(=O)O | > 100 µM (inactive) | > 100 µM (inactive) | > 100 µM (inactive) | > 100 µM (inactive) | > 100 µM (inactive) | > 100 µM (inactive) | > 100 µM (inactive) | > 100 µM (inactive) | > 100 µM (inactive) | > 100 µM (inactive) | > 100 µM (inactive) | > 100 µM (inactive) | > 100 µM (inactive) | > 100 µM (inactive) | > 100 µM (inactive) | > 100 µM (inactive) | > 100 µM (inactive) | > 100 µM (inactive) | > 100 µM (inactive) | > 100 µM (inactive)
2 | Cc1n2nc(N)sc2n[n+]1CC(=O)c1ccccc1 | > 100 µM (inactive) | > 100 µM (inactive) | > 100 µM (inactive) | > 100 µM (inactive) | 14 µM (inactive) | > 100 µM (inactive) | > 100 µM (inactive) | > 100 µM (inactive) | > 100 µM (inactive) | > 100 µM (inactive) | > 100 µM (inactive) | > 100 µM (inactive) | > 100 µM (inactive) | > 100 µM (inactive) | > 100 µM (inactive) | > 100 µM (inactive) | > 100 µM (inactive) | > 100 µM (inactive) | > 100 µM (inactive) | > 100 µM (inactive)
3 | COc1ccc(C(C)NNC(=O)c2ccncc2)cc1OC (stereo not given) | > 100 µM (inactive) | > 100 µM (inactive) | > 100 µM (inactive) | > 100 µM (inactive) | > 100 µM (inactive) | > 100 µM (inactive) | > 100 µM (inactive) | > 100 µM (inactive) | > 100 µM (inactive) | > 100 µM (inactive) | > 100 µM (inactive) | > 100 µM (inactive) | > 100 µM (inactive) | > 100 µM (inactive) | > 100 µM (inactive) | > 100 µM (inactive) | > 100 µM (inactive) | > 100 µM (inactive) | > 100 µM (inactive) | > 100 µM (inactive)
4 | CC(=O)Nc1ccc2c3c(cc(O)c2c1)N(C(=O)CCCCCCC(=O)N1CC(CCl)c2c1cc(O)c1cc(NC(C)=O)ccc21)CC3CCl (stereo not given) | 0.0148 µM (active) | < 0.01 µM (active) | < 0.01 µM (active) | < 0.0125 µM (active) | < 0.01 µM (active) | < 0.01 µM (active) | < 0.01 µM (active) | < 0.01 µM (active) | < 0.01 µM (active) | 0.0419 µM (active) | < 0.01 µM (active) | < 0.01 µM (active) | 0.0509 µM (active) | 0.0151 µM (active) | < 0.0116 µM (active) | 0.0249 µM (active) | < 0.01 µM (active) | < 0.01 µM (active) | < 0.01 µM (active) | < 0.01 µM (active)
5 | COC(=O)C1=C(C(=O)OC)N(c2ccc(OC)cc2[N+](=O)[O-])C(c2ccc(C)cc2)=CC1c1ccc(OC)cc1OC (stereo not given) | 64.3 µM (inactive) | 23.6 µM (inactive) | 26.2 µM (inactive) | 3.16 µM (inactive) | 25.2 µM (inactive) | 6.37 µM (inactive) | 8.79 µM (inactive) | 22.2 µM (inactive) | 4.62 µM (inactive) | 44 µM (inactive) | 8.28 µM (inactive) | 2.36 µM (inactive) | 11.7 µM (inactive) | 3.88 µM (inactive) | 26.4 µM (inactive) | 4.27 µM (inactive) | 11.9 µM (inactive) | 18.3 µM (inactive) | 32.9 µM (inactive) | 18.7 µM (inactive)
